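Method: 48-hour compound exposure of cells in 96-well plates, five concentrations, linear interpolation of endpoints. GI50: concentration for 50% inhibition of growth.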 The source made the active and inactive calls. Cut-off read from the data, not from the text of the source: active = GI50 up to about 1.1 µM and inactive = higher. Starred links: 1 amine or outer side, 2 acyl side, 3 side chain; linkers in the order of their positions; H or OH if unused. Non-standard residues stand in square brackets, D forms with d. Residues, ends and D or L forms follow the SMILES beside them. ξ: configuration not given here. Ile(3ξ) = CCC(C)[C@H](N)C(=O)O; X35 = C=CCC(O[*:1])C(=O)[*:2]; NMeV = CN[C@H](C(=O)O)C(C)C; NMeA = CN[C@@H](C)C(=O)O; βAla = NCCC(=O)O
Columns and labels:
Assay in all cases: NCI tumour cell line growth inhibition, 48 h
[1] = system: A498
[2] = system: ACHN
[3] = system: HCT-15
[4] = system: HOP-62
[5] = system: HT-29
[6] = system: IGROV-1
[7] = system: NCI-H226
[8] = system: NCI-H23
[9] = system: OVCAR-8
[10] = system: RXF 393
[11] = system: SF-268
[12] = system: SF-539
[13] = system: SNB-75
[14] = system: SR
[15] = system: TK-10
[16] = system: UACC-257
[17] = system: BT-549
[18] = system: MCF7
[19] = system: MDA-MB-435

Compound | GI50 [1] | GI50 [2] | GI50 [3] [µM] | GI50 [4] | GI50 [5] | GI50 [6] | GI50 [7] | GI50 [8] | GI50 [9] | GI50 [10] | GI50 [11] | GI50 [12] | GI50 [13] | GI50 [14] | GI50 [15] | GI50 [16] | GI50 [17] | GI50 [18] | GI50 [19]
CC(C)S(=O)(=O)n1c(N)nc2ccc(/C(=N/O)c3ccccc3)cc21 [ENVIROXIME] | 8.32 µM (inactive) | 13.7 µM (inactive) | 23.4 | 13.9 µM (inactive) | 16.9 µM (inactive) | 19 µM (inactive) | 4.63 µM (inactive) | 21.8 µM (inactive) | 30.3 µM (inactive) | 11.4 µM (inactive) | 27.7 µM (inactive) | 15 µM (inactive) | 3.26 µM (inactive) | 0.223 µM (active) | 32.4 µM (inactive) | 44.5 µM (inactive) |  |  | 
CCCCCCCCCCCc1c(O)c(=O)c2c(oc3c(=O)c(CCCCCCCCCCC)c(O)c(=O)c3n2-c2ccc(N(C)C)cc2)c1=O | 20.7 µM (inactive) | 20.7 µM (inactive) | 18.6 | 20.7 µM (inactive) | 23.1 µM (inactive) | 24.3 µM (inactive) | 19.3 µM (inactive) | 28.7 µM (inactive) | 23.3 µM (inactive) | 25 µM (inactive) | 22.2 µM (inactive) | 20.3 µM (inactive) | 23.7 µM (inactive) | 65.2 µM (inactive) | 15.6 µM (inactive) | 20 µM (inactive) |  |  | 
C/C(=N\NS(=O)(=O)c1ccc(C)cc1)C(CN1CCCCC1)C(c1ccccc1)c1c(O)c2ccccc2oc1=O (configuration not stated) | > 100 µM (inactive) | > 100 µM (inactive) | > 100 | > 100 µM (inactive) | > 100 µM (inactive) | > 100 µM (inactive) | > 100 µM (inactive) | > 100 µM (inactive) | > 100 µM (inactive) | 39.6 µM (inactive) | > 100 µM (inactive) | > 100 µM (inactive) | > 100 µM (inactive) | 57 µM (inactive) | > 100 µM (inactive) | > 100 µM (inactive) |  |  | 
CC(=O)O/C=C1/C[C@H]2[C@@H]3CCC4CC(C(C)=O)CC[C@]4(C)[C@H]3CC[C@]2(C)C1=O (some centres not stated) | > 100 µM (inactive) | > 100 µM (inactive) | 14.8 | > 100 µM (inactive) | 51.4 µM (inactive) | 88.9 µM (inactive) | > 100 µM (inactive) | 81.7 µM (inactive) |  | > 100 µM (inactive) | > 100 µM (inactive) |  |  | 44.1 µM (inactive) | > 100 µM (inactive) | > 100 µM (inactive) | > 100 µM (inactive) | 38 µM (inactive) | > 100 µM (inactive)
Cc1ccc(NC(=O)C(=O)CC(=O)c2c(C)[n+]([O-])c3ccccc3[n+]2[O-])cc1 | > 100 µM (inactive) | 26.2 µM (inactive) | 31.8 | > 100 µM (inactive) | 33.6 µM (inactive) | 22 µM (inactive) | > 100 µM (inactive) | 20.3 µM (inactive) | 22.8 µM (inactive) | 54.8 µM (inactive) | 35.8 µM (inactive) | 29.2 µM (inactive) | 23.6 µM (inactive) | 20.5 µM (inactive) | 91 µM (inactive) | 24.2 µM (inactive) |  |  | 
C=CCC1OC(=O)CCNC(=O)[C@H](C)N(C)C(=O)[C@H](C(C)C)N(C)C(=O)[C@H](C(C)CC)NC(=O)[C@@H]2CCCN2C1=O (some centres not stated) (cyclo([Ile(3ξ)][NMeV][NMeA][βAla][X35]P)) | > 71.6 µM (inactive) | 27.9 µM (inactive) | 23 | 4.09 µM (inactive) | 2.99 µM (inactive) | 33.6 µM (inactive) | 7.55 µM (inactive) | 26.7 µM (inactive) | 16.2 µM (inactive) | > 100 µM (inactive) | 4.12 µM (inactive) | 10.1 µM (inactive) | > 21.1 µM (inactive) | 4.95 µM (inactive) | > 38.3 µM (inactive) | 4.71 µM (inactive) |  |  | 
Clc1ccc(/N=N/c2nc3ccccc3nc2/N=N/c2ccc(Cl)cc2Cl)c(Cl)c1 | > 100 µM (inactive) | 45.9 µM (inactive) | > 100 | > 100 µM (inactive) | > 100 µM (inactive) | > 100 µM (inactive) | > 100 µM (inactive) | > 100 µM (inactive) | > 100 µM (inactive) | > 100 µM (inactive) | > 100 µM (inactive) | > 100 µM (inactive) | 22.9 µM (inactive) | 33.5 µM (inactive) | > 100 µM (inactive) | > 100 µM (inactive) |  |  | 
COc1ccc(O[C@H](COCc2ccccc2)C[C@@H]2COC(C)(C)O2)cc1 | > 100 µM (inactive) | > 100 µM (inactive) | > 100 | > 100 µM (inactive) | > 100 µM (inactive) | > 100 µM (inactive) | > 100 µM (inactive) | > 100 µM (inactive) | > 100 µM (inactive) | > 100 µM (inactive) | > 100 µM (inactive) | > 100 µM (inactive) | > 100 µM (inactive) | > 100 µM (inactive) | > 100 µM (inactive) | > 100 µM (inactive) | > 100 µM (inactive) | > 100 µM (inactive) | > 100 µM (inactive)
CCSc1nc(N2CCCC2)s[s+]1.[O-][Cl+3]([O-])([O-])[O-] | 6.75 µM (inactive) | 54.3 µM (inactive) | 27.4 | 56.5 µM (inactive) | 0.582 µM (active) | 4.07 µM (inactive) | 63.4 µM (inactive) | 46.8 µM (inactive) | 39.3 µM (inactive) | 30.9 µM (inactive) | 40.2 µM (inactive) | 43 µM (inactive) | 24.3 µM (inactive) | 1.04 µM (active) | 90.8 µM (inactive) | 36.9 µM (inactive) | 33 µM (inactive) | 0.167 µM (active) | 13.6 µM (inactive)
Cc1ccc(S(=O)(=O)N[C@@H](Cc2ccccc2)C(=O)CCl)cc1 [TPCK] | 17.8 µM (inactive) | 16.5 µM (inactive) | 16 | 17.3 µM (inactive) | 14.9 µM (inactive) | 14.9 µM (inactive) | 15.2 µM (inactive) | 13.6 µM (inactive) | 13.7 µM (inactive) | 1.38 µM (inactive) | 15.7 µM (inactive) | 16.5 µM (inactive) | 14.3 µM (inactive) |  | 17.2 µM (inactive) | 12.3 µM (inactive) | 11.7 µM (inactive) | 10.5 µM (inactive) | 14.3 µM (inactive)
CCOC(=O)CCCc1cc(O)c2c(C)c3[nH]c4ccc(Cl)cc4c3c(C)c2n1 | 15.3 µM (inactive) | 24.3 µM (inactive) | 31.5 | 20.7 µM (inactive) | 23.7 µM (inactive) | 30.2 µM (inactive) | 19.1 µM (inactive) | 50.2 µM (inactive) | 24.9 µM (inactive) | 12.7 µM (inactive) | 26.2 µM (inactive) | 14.6 µM (inactive) | 25.9 µM (inactive) | 44.4 µM (inactive) | 21.1 µM (inactive) | 43.2 µM (inactive) | 19 µM (inactive) | 15.9 µM (inactive) | 18.5 µM (inactive)
O=C1[C@H]2ON(c3ccccc3)C(c3cccc([N+](=O)[O-])c3)[C@H]2C(=O)N1c1ccc(Cc2ccc(N3C(=O)[C@@H]4ON(c5ccccc5)C(c5cccc([N+](=O)[O-])c5)[C@@H]4C3=O)cc2)cc1 (some centres not stated) | 36.5 µM (inactive) | > 100 µM (inactive) | > 100 | > 100 µM (inactive) | > 100 µM (inactive) | > 100 µM (inactive) | > 100 µM (inactive) | > 100 µM (inactive) | > 100 µM (inactive) | > 100 µM (inactive) | > 100 µM (inactive) | > 100 µM (inactive) | > 100 µM (inactive) | > 100 µM (inactive) | > 100 µM (inactive) | > 100 µM (inactive) |  |  | 
O=C(O)C12C3CCCC1C2CC3 (configuration not stated) | > 100 µM (inactive) | > 100 µM (inactive) | > 100 | > 100 µM (inactive) | > 100 µM (inactive) | > 100 µM (inactive) | > 100 µM (inactive) | > 100 µM (inactive) | > 100 µM (inactive) | > 100 µM (inactive) | > 100 µM (inactive) | > 100 µM (inactive) | > 100 µM (inactive) | > 100 µM (inactive) | > 100 µM (inactive) | > 100 µM (inactive) |  |  | 
COc1cc(C2SCC(=O)N2c2ccc(Cl)cc2)cc(OC)c1OC (configuration not stated) | > 100 µM (inactive) |  | 13.9 | 21.1 µM (inactive) |  | 20.7 µM (inactive) | > 49.1 µM (inactive) | 26.2 µM (inactive) | > 45.4 µM (inactive) | 19.1 µM (inactive) | 97.5 µM (inactive) | > 100 µM (inactive) | > 100 µM (inactive) | 1.12 µM (active) | > 100 µM (inactive) | 22.6 µM (inactive) | 20.2 µM (inactive) | 5.22 µM (inactive) | 0.635 µM (active)
COc1ccc(/C=C/c2sc3ccccc3[n+]2CCCCI)cc1OC | > 10 µM (inactive) | > 10 µM (inactive) | > 10 | > 10 µM (inactive) | > 10 µM (inactive) | > 10 µM (inactive) | > 10 µM (inactive) | > 10 µM (inactive) | 4.61 µM (inactive) | > 10 µM (inactive) | > 10 µM (inactive) | > 10 µM (inactive) | 5.64 µM (inactive) |  | > 10 µM (inactive) | 5.33 µM (inactive) | > 10 µM (inactive) | > 10 µM (inactive) | 4.57 µM (inactive)
CCOC(=O)c1ccc(N2C(=S)N(C(=O)c3ccccc3)C(=N/c3ccccc3)/C2=N\c2ccccc2)cc1 |  | 37.8 µM (inactive) | > 100 | 19.7 µM (inactive) | > 100 µM (inactive) | 49.5 µM (inactive) | 22.9 µM (inactive) | 56.1 µM (inactive) | 24.7 µM (inactive) | > 10 µM (inactive) | > 100 µM (inactive) | 63.2 µM (inactive) | 22.7 µM (inactive) | > 100 µM (inactive) | 62.1 µM (inactive) | > 100 µM (inactive) | 30.5 µM (inactive) | 55.3 µM (inactive) | 51.5 µM (inactive)
